Measured values as given in ChEMBL document CHEMBL1123053, “Analogues of platelet activating factor. 3. Replacement of the phosphate moiety with a sulfonylbismethylene group” (1985).

How the values were obtained:
Type in all cases: functional
[1] = tested on: Rattus norvegicus; assay: Effect on mean arterial blood pressure in SHR rat at the dose of 10 mg/kg i.v.; conditions: route intravenous
[2] = tested on: Rattus norvegicus; assay: Effect on mean arterial blood pressure in SHR rat at the dose of 0.3 mg/kg i.v.; conditions: route intravenous
[3] = organism: Oryctolagus cuniculus; assay: Compound did not aggregate rabbit platelet at concentration of 1.8E-5 M

SMILES | Blood pressure [1] [mmHg] | Blood pressure [2] [mmHg] | Activity [3]
CCCCCCCCCCCCCCCCOCC(CCS(=O)(=O)CCC[N+](C)(C)C)OC(C)=O.[Cl-] (stereo not drawn) | 20 |  | 
CCCCCCCCCCCCCCCCOCC(COP(=O)([O-])OCC[N+](C)(C)C)OC(C)=O (stereo not drawn) [PLATELET ACTIVATING FACTOR] |  | 20 | Did not aggregate rabbit platelet at concentration of 1.8E-5 M
